Results as given in patent publication US10729674B2, “Nanoparticle isoflavone compositions and methods of making and using the same” (Humanetics Corporation, priority 2010, dated 2020).

Experiments:
[1] = Pharmacokinetics and excretion in mice after IV or IM 14C-Genistein (Example 8); assay type: in vivo; conditions: for Bioavailibility / AUC0-inf / AUC0-tlast / Cmax / Extrapolation / ke1 / tlast: male CD1 mice, total radioactivity; for Bioavailibility: Group 2 single IM 200 mg/kg vs IV; for Excretion recovery: by 168 hours post dose
Procedure: As shown in the results of Table 10, male CD1 mice were administered a single IM dose (Group 2, nominal 200 mg/kg) or a single IV bolus dose (Group 3, nominal 50 mg/kg) of ^14C-Genistein. The genistein formulation used was a suspension formulation that includes genistein suspended in sterile water with 0.2% (w/w) Polysorbate 80 and 5% (w/w) PVP K17. […] Following dosing, the content and concentration of radioactivity in blood, plasma, excreta and carcass, and the non-compartmental pharmacokinetics of total radioactivity in whole blood and plasma were determined, Following dose administration, the extent and severity of any clinical signs was assessed.
(§1) Whole-blood samples were collected and plasma was obtained by centrifugation. The concentration of radioactivity in whole-blood and plasma was measured by liquid scintillation spectroscopy.

[2] = Radiochemical stability of the test article in dose formulations; assay type: physicochemical; conditions: for mean stability value (radiochemical): dog study; for mean radiochemical stability: mouse study
Procedure: The concentration of radioactivity in both dose formulations was measured pre and post dose by liquid scintillation spectroscopy and was similar on both occasions. The radiochemical stability of the test article in both dose formulations was assessed prior to and following the administration of the dose. The mean radiochemical stability of the test article in the dose formulation samples from the intramuscular dose formulation (Group 2) were 98.5% and 98.2%, respectively. The mean radiochemical stability values for pre and post dose samples from the intravenous dose formulation (Group 3) were 98.3% and 98.5%, respectively. Therefore, the ^14C-Genistein in both formulations was considered to have been radiochemically stable throughout the dosing period.
(§2) Male Beagle dogs were administered a single IV bolus dose (Group 1, nominal 20 mg/kg) or a single IM dose (Group 2, nominal 20 mg/kg) of 14C-Genistein (results shown in Table 11). The Genistein suspension formulation used was prepared as described in Example 8, Following dosing, the content and concentration of radioactivity in blood, plasma and excreta, and the non-compartmental pharmacokinetics of total radioactivity in whole blood and plasma were determined. The concentration of radioactivity in both dose formulations was measured pre and post dose by liquid scintillation spectroscopy and was similar on both occasions. The radiochemical stability of the test article in both dose formulations was assessed prior to and following the administration of the dose. The mean stability values for pre and post dose samples from the intravenous dose formulation (Group 1) were 100% and 99.6%, respectively. The mean stability values for pre and post dose samples from the intramuscular dose formulation (Group 2) were 99.2% and 98.9%, respectively. Therefore, the ^14C-Genistein in both formulations was considered to have been radiochemically stable throughout the dosing period.

[3] = Pharmacokinetics and excretion in Beagle dogs after IV or IM 14C-Genistein (Example 9); assay type: in vivo; conditions: for AUC0-inf / AUC0-tlast / Cmax / Extrapolation / ke1 / tlast / Bioavailibility: male Beagle dogs, total radioactivity; for Bioavailibility: Group 2 single IM 20 mg/kg vs IV, from AUC0-tlast
Procedure: as §2, §1

[4] = Group 2 single IM 200 mg/kg, blood
[5] = Group 2 single IM 200 mg/kg, plasma
[6] = Group 3 single IV bolus 50 mg/kg, blood
[7] = Group 3 single IV bolus 50 mg/kg, plasma
[8] = Group 1 single IV bolus 20 mg/kg, blood
[9] = Group 1 single IV bolus 20 mg/kg, plasma
[10] = Group 2 single IM 20 mg/kg, blood
[11] = Group 2 single IM 20 mg/kg, plasma

With O=c1c(-c2ccc(O)cc2)coc2cc(O)cc(O)c12 [14C-Genistein] the treatment-related clinical signs ([1]; main study male mice, single IM 200 mg/kg or single IV 50 mg/kg) was “No treatment-related clinical signs were observed”, the Bioavailibility ([1]; blood) was 49.7% and the Bioavailibility ([1]; plasma) was 83.5%. For the same compound, the AUC0-inf [1, 4] was 223 μg eq · h/mL, the AUC0-tlast [1, 4] was 222 μg eq · h/mL and the Cmax [1, 4] was 33.3 μg eq/mL. The Extrapolation [1, 4] was 0.663%, the ke1 [1, 4] was 0.0242 h⁻¹ and the tlast [1, 4] was 168 h. It also gave an AUC0-inf [1, 5] of 387 μg eq · h/mL, an AUC0-tlast [1, 5] of 375 μg eq · h/mL and a Cmax [1, 5] of 63.1 μg eq/mL. For the same compound, the Extrapolation [1, 5] was 3.18%, the ke1 [1, 5] was 0.0145 h⁻¹ and the tlast [1, 5] was 168 h. It also gave an AUC0-inf [1, 6] of 112 μg eq · h/mL, an AUC0-tlast [1, 6] of 99.7 μg eq · h/mL and a Cmax [1, 6] of 60.1 μg eq/mL. The Extrapolation [1, 6] was 11.4%, the ke1 [1, 6] was 0.0118 h⁻¹ and the tlast [1, 6] was 168 h. For the same compound, the AUC0-inf [1, 7] was 116 μg eq · h/mL, the AUC0-tlast [1, 7] was 116 μg eq · h/mL and the Cmax [1, 7] was 108 μg eq/mL. For the same compound, the Extrapolation [1, 7] was 0.191%, the ke1 [1, 7] was 0.0307 h⁻¹ and the tlast [1, 7] was 168 h. For the same compound, the “tolerability of dose level” value ([1]; mice, 200 mg/kg (IM) and 50 mg/kg (IV)) was “well tolerated”, the “Blood to plasma ratios” value ([1]; mice, Group 2 IM 200 mg/kg, any time post dose) was “less than 1” and the “time post dose of highest mean concentration of radioactivity in plasma and whole blood” value ([1]; mice, Group 2 IM 200 mg/kg, first time point analyzed) was 30 min. The Excretion recovery ([1]; mice, Group 2 IM) was about 92%, the blood-to-plasma ratios ([1]; mice, Group 3 IV 50 mg/kg, 0 to 24 hours) was “less than 1” and the “time post dose of highest mean concentration of radiolabelled material in plasma and whole blood” value ([1]; mice, Group 3 IV 50 mg/kg, first time point analyzed) was 30 min. For the same compound, the Excretion recovery ([1]; mice, Group 3 IV) was “approximately 93%”, the “time within which the majority of the dose administered was excreted” value ([1]; mice, both dose routes) was at most 24 h and the “mean stability value (radiochemical)” value ([2]; intramuscular dose formulation (Group 2), post dose) was 98.9%. The “mean stability value (radiochemical)” value ([2]; intramuscular dose formulation (Group 2), pre dose) was 99.2%, the “mean stability value (radiochemical)” value ([2]; intravenous dose formulation (Group 1), post dose) was 99.6% and the “mean stability value (radiochemical)” value ([2]; intravenous dose formulation (Group 1), pre dose) was 100%. The mean radiochemical stability ([2]; intramuscular dose formulation (Group 2), following dosing) was 98.2%, the mean radiochemical stability ([2]; intramuscular dose formulation (Group 2), prior to dosing) was 98.5% and the mean radiochemical stability ([2]; intravenous dose formulation (Group 3), post dose) was 98.5%. For the same compound, the mean radiochemical stability ([2]; intravenous dose formulation (Group 3), pre dose) was 98.3%, the “Excretion recovery by 168 hours post dose” value ([3]; dogs, Group 1 IV) was “approximately 87.9%” and the “Blood to plasma ratios” value ([3]; dogs, Group 1 IV bolus 20 mg/kg) was “less than 1”. The “time post dose of highest mean concentration of radiolabelled material in plasma and whole blood” value ([3]; dogs, Group 1 IV bolus 20 mg/kg, first time point analyzed) was 15 min, the “Excretion recovery by 168 hours post dose” value ([3]; dogs, Group 2 IM) was about 85.8% and the “time post dose of highest mean concentration of radioactivity in plasma and whole blood” value ([3]; dogs, Group 2 IM 20 mg/kg) was 2 h. For the same compound, the “Blood to plasma ratios” value ([3]; dogs, Group 2 IM 20 mg/kg, any time post dose) was “less than 1”, the Clinical signs ([3]; dogs, IV bolus 20 mg/kg and IM 20 mg/kg, considered to be dose-related) was “Clinical signs were observed in both groups” and the excretion mass balance ([3]; dogs, both dose routes) was “greater than 85%”. The “time within which the majority of the dose administered was excreted” value ([3]; dogs, both dose routes) was at most 48 h, the “overall mean excretion mass balance of radioactivity” value ([3]; dogs, both groups) was 86-88 % of the administered dose and the AUC0-inf [3, 8] was 122 μg eq · h/mL. It also gave an AUC0-tlast [3, 8] of 117 μg eq · h/mL, a Cmax [3, 8] of 40.4 μg eq/mL and an Extrapolation [3, 8] of 16.8%. It also gave a ke1 [3, 8] of 0.0130 h⁻¹, a tlast [3, 8] of 120 h and an AUC0-inf [3, 9] of 227 μg eq · h/mL. It also gave an AUC0-tlast [3, 9] of 201 μg eq · h/mL, a Cmax [3, 9] of 94.4 μg eq/mL and an Extrapolation [3, 9] of 11.3%. For the same compound, the ke1 [3, 9] was 0.0138 h⁻¹, the tlast [3, 9] was 120 h and the Bioavailibility ([3]; blood) was 92.9%. For the same compound, the Bioavailibility ([3]; plasma) was 96.1%, the AUC0-tlast [3, 10] was 108 μg eq · h/mL and the Cmax [3, 10] was 5.39 μg eq/mL. For the same compound, the tlast [3, 10] was 168 h, the AUC0-inf [3, 11] was 228 μg eq · h/mL and the AUC0-tlast [3, 11] was 193 μg eq · h/mL. For the same compound, the Cmax [3, 11] was 10.9 μg eq/mL, the Extrapolation [3, 11] was 15.1% and the ke1 [3, 11] was 0.0092 h⁻¹. The tlast [3, 11] was 168 h.
